# Values quoted from earlier work, collected in US7901914B2, “Microbiological method of the biosynthesis of natural blue-violet colorants violacein and deoxyviolacein and the utilization thereof” (Stiftung Alfred-Wegener-Institut fuer Polar- und …, priority 2000, dated 2011).
structure (smiles),measurement,setting,value
"O=C1NC(c2c[nH]c3ccc(O)cc23)=C/C1=C1\C(=O)Nc2ccccc21 [violacein, 3-[1,2-dihydro-5-(5-hydroxy-1H-indole-3-yl)-2-oxo-3-H-pyrrole-3-ylidene]-1,3-dihydro-2H-indole-2-on]",solubility in organic solvents,"in acetone, ethanol and dioxane",soluble
same,solubility in water,in water,practically insoluble
